Results: patent US20140148400A1, “CARBONIC ANHYDRASE INHIBITORS WITH […] ACTIVITY” (METASIGNAL THERAPEUTICS INC., priority 2010, published 2014)
Read-outs that look alike come from different tables or passages of the source.

Experiments:
hCA I = hCA I (Homo sapiens, UniProt P00915); assay: In vitro CA inhibition assay, hCA I; assay type: biochemical; details: unit from table title
hCA II = hCA II (Homo sapiens, UniProt P00918); assay: In vitro CA inhibition assay, hCA II; assay type: biochemical
hCA IX = hCA IX (Homo sapiens, UniProt Q16790); assay: In vitro CA inhibition assay, hCA IX; assay type: biochemical; details: cells with nM printed beside the value
human CA isoforms = details: background statement; cited from earlier work
4T1 mammary tumor cells = details: 2×10^5 4T1 cells i.v.; daily i.p. injection for 6 days from 24 hours post inoculation; imaged 24 hours after final dose
4T1 primary tumors = assay: Growth of orthotopically implanted 4T1 primary tumors; assay type: in vivo, female BALB/c mice; details: 1×10^6 cells/mouse orthotopic; tumors established 14 days; daily i.p. for 14 days
[1] = unit from table title, read-out: hCA II inhibition data in KI

Chain of hCA I (P00915 whole entry): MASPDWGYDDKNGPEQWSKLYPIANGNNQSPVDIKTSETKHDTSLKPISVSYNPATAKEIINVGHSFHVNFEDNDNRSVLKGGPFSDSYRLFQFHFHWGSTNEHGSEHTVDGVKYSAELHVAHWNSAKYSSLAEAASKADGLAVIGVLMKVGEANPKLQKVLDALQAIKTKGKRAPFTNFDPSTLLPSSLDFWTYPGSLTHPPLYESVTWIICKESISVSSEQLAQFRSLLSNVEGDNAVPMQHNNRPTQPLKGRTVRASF

## Cc1cc(=O)oc2cc(OC3OC(CO)C(O)C(O)C3O)ccc12 (single isomer, unassigned) [MST-202, 4-methylumbellifer-7-yl- -D-glucopyranoside]
hCA I
  Ki: 1 µM
hCA II; [1]
  Ki: > 100 µM

## Cc1cc(=O)oc2cc(OC3OC(CO)C(O)C(O)C3O)ccc12 (single isomer, unassigned) [MST-203, 4-methylumbellifer-7-yl-1-D-galactopyranoside]
hCA I
  Ki: 0.59 µM
hCA II; [1]
  Ki: 77 µM
hCA IX
  Ki: 93 nM

## COc1cc2oc(=O)ccc2cc1[C@@H](O)CC(C)C [6-(1S-hydroxy-3-methylbutyl)-7-methoxy-2H-chromen-2-one]
Human CA isoforms
  inhibition of all investigated human CA isoforms: nonselective, potent inhibitors

## Cc1cc(=O)oc2cc(OC3OCC(O)C(O)C3O)ccc12 [MST-201, 4-methylumbellifer-7-yl- -D-xylopyranoside]
other
  melting point: 223 °C

## Cc1cc(=O)oc2cc(O[C@H]3O[C@H](CO)[C@@H](O)[C@H](O)[C@@H]3O)ccc12 [MST-204, 4-methylumbellifer-7-yl-α-D-mannopyranoside]
4T1 mammary tumor cells
  formation of metastases by 4T1 mammary tumor cells (tumor-derived bioluminescence): reduced the formation of metastases

## Cc1cc(=O)oc2cc(OC3OC(C)C(O)C(O)C3O)ccc12 [MST-205, 4-methylumbellifer-7-yl- -L-rhamnopyranoside]
hCA I
  Ki: > 100 µM
hCA II; [1]
  Ki: > 100 µM
hCA IX
  Ki: 201 nM
4T1 primary tumors
  growth of 4T1 primary tumors (caliper-based measurement): Attenuates the Growth of 4T1 Primary Tumors
4T1 mammary tumor cells
  formation of metastases by 4T1 mammary tumor cells (tumor-derived bioluminescence): inhibits the formation of metastases

## C#CCOc1ccc2ccc(=S)oc2c1 [MST-217, 7-(prop-2-ynyloxy)-2H-chromene-2-thione]
other
  melting point: 97 to 101 °C

## O=c1ccc2cc(OCc3cn(-c4ccccc4Cl)nn3)ccc2o1 [MST-225, 6-((1-(2-chlorophenyl)-1H-1,2,3-triazol-4-yl)methoxy)-2H-chromen-2-one]
other
  melting point: 164 to 166 °C

## CC(C)(C)[Si](C)(C)Oc1ccc2oc(=O)ccc2c1 [MST-230, 6-(tert-Butyldimethylsilyloxy)-2H-chromen-2-one]
hCA II; [1]
  Ki: > 200 µM

## CC(C)(C)[Si](C)(C)Oc1ccc2ccc(=O)oc2c1 [MST-231, 7-(tert-Butyldimethylsilyloxy)-2H-chromen-2-one]
hCA II
  Ki: > 200 µM

## Oc1ccc2oc(=S)ccc2c1 [MST-233, 6-Hydroxy-2H-chromene-2-thione]
hCA II; [1]
  Ki: > 200 µM

## C=CCOc1ccc2oc(=S)ccc2c1 [MST-240, 6-(Allyloxy)-2H-chromene-2-thione]
hCA II; [1]
  Ki: > 200 µM

## N#Cc1cc2ccc(O)cc2oc1=O [MST-247]
hCA I
  Ki: 104 µM

## Cc1cc(=O)oc2cc(OCCn3c([N+](=O)[O-])cnc3C)ccc12 [MST-248, 7-O-[2-(2-methyl-5-nitro-imidazol-1-yl)ethyl]-4-methylcoumarine]
other
  melting point: 238 to 240 °C

## Cc1cc(=O)oc2ccc(OCCn3c([N+](=O)[O-])cnc3C)cc12 [MST-249, 6-O-[2-(2-methyl-5-nitro-imidazol-1-yl)ethyl]-4-methylcoumarine]
other
  melting point: 190 to 191 °C

## O=c1ccc2ccccc2o1 [unsubstituted coumarin, coumarin]
Human CA isoforms
  inhibition of all investigated human CA isoforms: nonselective, potent inhibitors
